Results taken from article PMC3968014, “Design and Synthesis of a Library of Lead-Like 2,4-Bisheterocyclic Substituted Thiophenes as Selective Dyrk/Clk Inhibitors” (PLoS ONE, 2014).

Assays:
U2OS osteosarcoma cells = test: Caspase-3 Assay (Caspase-Glo 3/7); assay type: cell-based; details: starved U2OS cells, 48 hours, vs DMSO control
Protocol: U2OS osteosarcoma cells were seeded in a 96 well flat bottom plate (15*10^3 cells/well). […] The induction of caspase-3/7 activity was measured using the Promega Caspase-Glo 3/7 assay system (Promega, LOT 0000054568). The resulting luciferase reaction signals that are proportional to the caspase induction were measured in a POLARstar plate reader (BMG Labtech, Offenburg, Germany). […] Values obtained for different compound concentrations were compared using the two-sided Student's t test; levels of significance thus obtained are indicated by asterisks.

DYRK3 = target: T1, DYRK3 (Homo sapiens, UniProt O43781); test: Selectivity panel DYRK3; assay type: biochemical; details: 5 µM inhibitor
T1 construct: purchased Life Technologies (Invitrogen SelectScreen); Dyrk1A, Dyrk2 and CK2α in-house or gifts

CLK2 = target: T2, CLK2 (Homo sapiens, UniProt P49760); test: Selectivity panel CLK2; assay type: biochemical; details: 5 µM inhibitor
T2 construct: purchased Life Technologies (Invitrogen SelectScreen); Dyrk1A, Dyrk2 and CK2α in-house or gifts

MAPK12 (p38 gamma, ERK3) = target: T3, MAPK12 (p38 gamma, ERK3) (Homo sapiens, UniProt P53778); test: Selectivity panel MAPK12; assay type: biochemical; details: 5 µM inhibitor
T3 construct: purchased Life Technologies (Invitrogen SelectScreen); Dyrk1A, Dyrk2 and CK2α in-house or gifts

MAPK8 (JNK1) = target: T4, MAPK8 (JNK1) (Homo sapiens, UniProt P45983); test: Selectivity panel MAPK8; assay type: biochemical; details: 5 µM inhibitor
T4 construct: purchased Life Technologies (Invitrogen SelectScreen); Dyrk1A, Dyrk2 and CK2α in-house or gifts

MAPK9 (JNK2) = target: T5, MAPK9 (JNK2) (Homo sapiens, UniProt P45984); test: Selectivity panel MAPK9; assay type: biochemical; details: 5 µM inhibitor
T5 construct: purchased Life Technologies (Invitrogen SelectScreen); Dyrk1A, Dyrk2 and CK2α in-house or gifts

SRPK1 = target: T6, SRPK1 (Homo sapiens, UniProt Q96SB4); test: Selectivity panel SRPK1; assay type: biochemical; details: 5 µM inhibitor
T6 construct: purchased Life Technologies (Invitrogen SelectScreen); Dyrk1A, Dyrk2 and CK2α in-house or gifts

MAP2K1 (MEK1) = target: T7, MAP2K1 (MEK1) (Homo sapiens, UniProt Q02750); test: Selectivity panel MAP2K1; assay type: biochemical; details: 5 µM inhibitor
T7 construct: purchased Life Technologies (Invitrogen SelectScreen); Dyrk1A, Dyrk2 and CK2α in-house or gifts

MAP2K6 (MKK6) = target: T8, MAP2K6 (MKK6) (Homo sapiens, UniProt P52564); test: Selectivity panel MAP2K6; assay type: biochemical; details: 5 µM inhibitor
T8 construct: purchased Life Technologies (Invitrogen SelectScreen); Dyrk1A, Dyrk2 and CK2α in-house or gifts

TAOK2 (TAO1) = target: T9, TAOK2 (TAO1) (Homo sapiens, UniProt Q9UL54); test: Selectivity panel TAOK2; assay type: biochemical; details: 5 µM inhibitor
T9 construct: purchased Life Technologies (Invitrogen SelectScreen); Dyrk1A, Dyrk2 and CK2α in-house or gifts

[1] = target: T10, (Homo sapiens, UniProt Q9UEW8); test: Selectivity panel PASK (STLK3); assay type: biochemical; details: 5 µM inhibitor; listed under STE
T10 construct: purchased Life Technologies (Invitrogen SelectScreen); Dyrk1A, Dyrk2 and CK2α in-house or gifts

ROCK2 = target: T11, ROCK2 (Homo sapiens, UniProt O75116); test: Selectivity panel ROCK2; assay type: biochemical; details: 5 µM inhibitor
T11 construct: purchased Life Technologies (Invitrogen SelectScreen); Dyrk1A, Dyrk2 and CK2α in-house or gifts

RPS6KB1 (p70S6K) = target: T12, RPS6KB1 (p70S6K) (Homo sapiens, UniProt P23443); test: Selectivity panel RPS6KB1; assay type: biochemical; details: 5 µM inhibitor
T12 construct: purchased Life Technologies (Invitrogen SelectScreen); Dyrk1A, Dyrk2 and CK2α in-house or gifts

SGK (SGK1) = target: T13, SGK (SGK1) (Homo sapiens, UniProt O00141); test: Selectivity panel SGK; assay type: biochemical; details: 5 µM inhibitor
T13 construct: purchased Life Technologies (Invitrogen SelectScreen); Dyrk1A, Dyrk2 and CK2α in-house or gifts

PRKCE (PKC epsilon) = target: T14, PRKCE (PKC epsilon) (Homo sapiens, UniProt Q02156); test: Selectivity panel PRKCE; assay type: biochemical; details: 5 µM inhibitor
T14 construct: purchased Life Technologies (Invitrogen SelectScreen); Dyrk1A, Dyrk2 and CK2α in-house or gifts

PRKCZ (PKC zeta) = target: T15, PRKCZ (PKC zeta) (Homo sapiens, UniProt Q05513); test: Selectivity panel PRKCZ; assay type: biochemical; details: 5 µM inhibitor
T15 construct: purchased Life Technologies (Invitrogen SelectScreen); Dyrk1A, Dyrk2 and CK2α in-house or gifts

PDK1 = target: T16, PDK1 (Homo sapiens, UniProt O15530); test: Selectivity panel PDK1; assay type: biochemical; details: 5 µM inhibitor
T16 construct: purchased Life Technologies (Invitrogen SelectScreen); Dyrk1A, Dyrk2 and CK2α in-house or gifts

MAPKAPK2 = target: T17, MAPKAPK2 (Homo sapiens, UniProt P49137); test: Selectivity panel MAPKAPK2; assay type: biochemical; details: 5 µM inhibitor
T17 construct: purchased Life Technologies (Invitrogen SelectScreen); Dyrk1A, Dyrk2 and CK2α in-house or gifts

MARK1 (MARK) = target: T18, MARK1 (MARK) (Homo sapiens, UniProt Q9P0L2); test: Selectivity panel MARK1; assay type: biochemical; details: 5 µM inhibitor
T18 construct: purchased Life Technologies (Invitrogen SelectScreen); Dyrk1A, Dyrk2 and CK2α in-house or gifts

CHEK1 (CHK1) = target: T19, CHEK1 (CHK1) (Homo sapiens, UniProt O14757); test: Selectivity panel CHEK1; assay type: biochemical; details: 5 µM inhibitor
T19 construct: purchased Life Technologies (Invitrogen SelectScreen); Dyrk1A, Dyrk2 and CK2α in-house or gifts

CHEK2 (CHK2) = target: T20, CHEK2 (CHK2) (Homo sapiens, UniProt O96017); test: Selectivity panel CHEK2; assay type: biochemical; details: 5 µM inhibitor
T20 construct: purchased Life Technologies (Invitrogen SelectScreen); Dyrk1A, Dyrk2 and CK2α in-house or gifts

MYLK2 (skMLCK) = target: T21, MYLK2 (skMLCK) (Homo sapiens, UniProt Q9H1R3); test: Selectivity panel MYLK2; assay type: biochemical; details: 5 µM inhibitor
T21 construct: purchased Life Technologies (Invitrogen SelectScreen); Dyrk1A, Dyrk2 and CK2α in-house or gifts

PASK = target: T22, PASK (Homo sapiens, UniProt Q96RG2); test: Selectivity panel PASK (CAMK); assay type: biochemical; details: 5 µM inhibitor; listed under CAMK
T22 construct: purchased Life Technologies (Invitrogen SelectScreen); Dyrk1A, Dyrk2 and CK2α in-house or gifts

IKBKB (IKK beta) = target: T23, IKBKB (IKK beta) (Homo sapiens, UniProt O14920); test: Selectivity panel IKBKB; assay type: biochemical; details: 5 µM inhibitor
T23 construct: purchased Life Technologies (Invitrogen SelectScreen); Dyrk1A, Dyrk2 and CK2α in-house or gifts

CSNK1G1 (CK1 gamma 1) = target: T24, CSNK1G1 (CK1 gamma 1) (Homo sapiens, UniProt Q9HCP0); test: Selectivity panel CSNK1G1; assay type: biochemical; details: 5 µM inhibitor
T24 construct: purchased Life Technologies (Invitrogen SelectScreen); Dyrk1A, Dyrk2 and CK2α in-house or gifts

ZAK = target: T25, ZAK (Homo sapiens, UniProt Q9NYL2); test: Selectivity panel ZAK; assay type: biochemical; details: 5 µM inhibitor
T25 construct: purchased Life Technologies (Invitrogen SelectScreen); Dyrk1A, Dyrk2 and CK2α in-house or gifts

RAF1 (cRAF) Y340D Y341D = target: T26, RAF1 (cRAF) Y340D Y341D (Homo sapiens, UniProt P04049, Y340D/Y341D); test: Selectivity panel RAF1; assay type: biochemical; details: 5 µM inhibitor
T26 construct: purchased Life Technologies (Invitrogen SelectScreen); Dyrk1A, Dyrk2 and CK2α in-house or gifts

ACVR1 (ALK2) = target: T27, ACVR1 (ALK2) (Homo sapiens, UniProt Q04771); test: Selectivity panel ACVR1; assay type: biochemical; details: 5 µM inhibitor
T27 construct: purchased Life Technologies (Invitrogen SelectScreen); Dyrk1A, Dyrk2 and CK2α in-house or gifts

IRAK4 = target: T28, IRAK4 (Homo sapiens, UniProt Q9NWZ3); test: Selectivity panel IRAK4; assay type: biochemical; details: 5 µM inhibitor
T28 construct: purchased Life Technologies (Invitrogen SelectScreen); Dyrk1A, Dyrk2 and CK2α in-house or gifts

TNK2 (ACK) = target: T29, TNK2 (ACK) (Homo sapiens, UniProt Q07912); test: Selectivity panel TNK2; assay type: biochemical; details: 5 µM inhibitor
T29 construct: purchased Life Technologies (Invitrogen SelectScreen); Dyrk1A, Dyrk2 and CK2α in-house or gifts

EPHA5 = target: T30, EPHA5 (Homo sapiens, UniProt P54756); test: Selectivity panel EPHA5; assay type: biochemical; details: 5 µM inhibitor
T30 construct: purchased Life Technologies (Invitrogen SelectScreen); Dyrk1A, Dyrk2 and CK2α in-house or gifts

FGFR3 = target: T31, FGFR3 (Homo sapiens, UniProt P22607); test: Selectivity panel FGFR3; assay type: biochemical; details: 5 µM inhibitor
T31 construct: purchased Life Technologies (Invitrogen SelectScreen); Dyrk1A, Dyrk2 and CK2α in-house or gifts

IGF1R = target: T32, IGF1R (Homo sapiens, UniProt P08069); test: Selectivity panel IGF1R; assay type: biochemical; details: 5 µM inhibitor
T32 construct: purchased Life Technologies (Invitrogen SelectScreen); Dyrk1A, Dyrk2 and CK2α in-house or gifts

MET (cMet) = target: T33, MET (cMet) (Homo sapiens, UniProt P08581); test: Selectivity panel MET; assay type: biochemical; details: 5 µM inhibitor
T33 construct: purchased Life Technologies (Invitrogen SelectScreen); Dyrk1A, Dyrk2 and CK2α in-house or gifts

ZAP70 = target: T34, ZAP70 (Homo sapiens, UniProt P43403); test: Selectivity panel ZAP70; assay type: biochemical; details: 5 µM inhibitor
T34 construct: purchased Life Technologies (Invitrogen SelectScreen); Dyrk1A, Dyrk2 and CK2α in-house or gifts

TEK (Tie2) = target: T35, TEK (Tie2) (Homo sapiens, UniProt Q02763); test: Selectivity panel TEK; assay type: biochemical; details: 5 µM inhibitor
T35 construct: purchased Life Technologies (Invitrogen SelectScreen); Dyrk1A, Dyrk2 and CK2α in-house or gifts

SRC = target: T36, SRC (Homo sapiens, UniProt P12931); test: Selectivity panel SRC; assay type: biochemical; details: 5 µM inhibitor
T36 construct: purchased Life Technologies (Invitrogen SelectScreen); Dyrk1A, Dyrk2 and CK2α in-house or gifts

PTK6 (Brk) = target: T37, PTK6 (Brk) (Homo sapiens, UniProt Q13882); test: Selectivity panel PTK6; assay type: biochemical; details: 5 µM inhibitor
T37 construct: purchased Life Technologies (Invitrogen SelectScreen); Dyrk1A, Dyrk2 and CK2α in-house or gifts

T6 sequence (Q96SB4 whole entry): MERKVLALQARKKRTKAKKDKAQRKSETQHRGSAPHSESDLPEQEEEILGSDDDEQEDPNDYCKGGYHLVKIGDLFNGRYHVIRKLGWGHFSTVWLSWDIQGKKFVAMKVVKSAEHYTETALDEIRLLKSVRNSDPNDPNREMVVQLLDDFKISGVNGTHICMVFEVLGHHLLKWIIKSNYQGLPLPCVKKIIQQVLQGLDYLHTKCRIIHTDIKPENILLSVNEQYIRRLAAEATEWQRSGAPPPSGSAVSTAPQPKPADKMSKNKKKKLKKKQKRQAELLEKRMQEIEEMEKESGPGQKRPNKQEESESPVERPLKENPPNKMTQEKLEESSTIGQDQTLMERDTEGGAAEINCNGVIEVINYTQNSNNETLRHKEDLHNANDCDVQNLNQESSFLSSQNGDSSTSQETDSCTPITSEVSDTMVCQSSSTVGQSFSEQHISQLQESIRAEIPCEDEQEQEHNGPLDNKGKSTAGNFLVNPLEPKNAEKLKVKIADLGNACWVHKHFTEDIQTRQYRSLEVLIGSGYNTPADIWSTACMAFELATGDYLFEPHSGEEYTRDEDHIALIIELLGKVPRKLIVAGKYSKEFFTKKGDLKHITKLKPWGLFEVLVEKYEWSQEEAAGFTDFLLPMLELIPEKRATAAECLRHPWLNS
T24 sequence (Q9HCP0 whole entry): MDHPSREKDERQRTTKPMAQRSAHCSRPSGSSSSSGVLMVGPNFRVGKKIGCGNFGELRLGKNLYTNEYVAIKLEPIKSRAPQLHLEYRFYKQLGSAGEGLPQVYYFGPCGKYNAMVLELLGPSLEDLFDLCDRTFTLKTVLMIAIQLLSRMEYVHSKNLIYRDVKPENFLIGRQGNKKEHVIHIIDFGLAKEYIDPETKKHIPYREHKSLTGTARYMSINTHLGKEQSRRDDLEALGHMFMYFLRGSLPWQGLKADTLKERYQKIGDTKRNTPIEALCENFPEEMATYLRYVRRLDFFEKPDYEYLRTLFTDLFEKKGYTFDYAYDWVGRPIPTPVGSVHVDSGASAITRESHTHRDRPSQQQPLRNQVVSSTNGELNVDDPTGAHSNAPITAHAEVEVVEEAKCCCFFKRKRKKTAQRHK
T3 sequence (P53778 whole entry): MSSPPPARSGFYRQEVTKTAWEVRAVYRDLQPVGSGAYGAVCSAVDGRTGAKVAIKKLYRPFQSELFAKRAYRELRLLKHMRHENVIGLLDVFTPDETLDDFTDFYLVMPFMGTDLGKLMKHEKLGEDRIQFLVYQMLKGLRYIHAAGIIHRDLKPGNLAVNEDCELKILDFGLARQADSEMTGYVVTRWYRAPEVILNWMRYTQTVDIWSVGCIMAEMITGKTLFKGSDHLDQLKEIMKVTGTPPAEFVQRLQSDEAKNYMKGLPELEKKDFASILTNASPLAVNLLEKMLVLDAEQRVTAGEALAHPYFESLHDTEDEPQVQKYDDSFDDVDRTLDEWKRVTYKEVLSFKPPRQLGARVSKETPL
T11 sequence (O75116 whole entry): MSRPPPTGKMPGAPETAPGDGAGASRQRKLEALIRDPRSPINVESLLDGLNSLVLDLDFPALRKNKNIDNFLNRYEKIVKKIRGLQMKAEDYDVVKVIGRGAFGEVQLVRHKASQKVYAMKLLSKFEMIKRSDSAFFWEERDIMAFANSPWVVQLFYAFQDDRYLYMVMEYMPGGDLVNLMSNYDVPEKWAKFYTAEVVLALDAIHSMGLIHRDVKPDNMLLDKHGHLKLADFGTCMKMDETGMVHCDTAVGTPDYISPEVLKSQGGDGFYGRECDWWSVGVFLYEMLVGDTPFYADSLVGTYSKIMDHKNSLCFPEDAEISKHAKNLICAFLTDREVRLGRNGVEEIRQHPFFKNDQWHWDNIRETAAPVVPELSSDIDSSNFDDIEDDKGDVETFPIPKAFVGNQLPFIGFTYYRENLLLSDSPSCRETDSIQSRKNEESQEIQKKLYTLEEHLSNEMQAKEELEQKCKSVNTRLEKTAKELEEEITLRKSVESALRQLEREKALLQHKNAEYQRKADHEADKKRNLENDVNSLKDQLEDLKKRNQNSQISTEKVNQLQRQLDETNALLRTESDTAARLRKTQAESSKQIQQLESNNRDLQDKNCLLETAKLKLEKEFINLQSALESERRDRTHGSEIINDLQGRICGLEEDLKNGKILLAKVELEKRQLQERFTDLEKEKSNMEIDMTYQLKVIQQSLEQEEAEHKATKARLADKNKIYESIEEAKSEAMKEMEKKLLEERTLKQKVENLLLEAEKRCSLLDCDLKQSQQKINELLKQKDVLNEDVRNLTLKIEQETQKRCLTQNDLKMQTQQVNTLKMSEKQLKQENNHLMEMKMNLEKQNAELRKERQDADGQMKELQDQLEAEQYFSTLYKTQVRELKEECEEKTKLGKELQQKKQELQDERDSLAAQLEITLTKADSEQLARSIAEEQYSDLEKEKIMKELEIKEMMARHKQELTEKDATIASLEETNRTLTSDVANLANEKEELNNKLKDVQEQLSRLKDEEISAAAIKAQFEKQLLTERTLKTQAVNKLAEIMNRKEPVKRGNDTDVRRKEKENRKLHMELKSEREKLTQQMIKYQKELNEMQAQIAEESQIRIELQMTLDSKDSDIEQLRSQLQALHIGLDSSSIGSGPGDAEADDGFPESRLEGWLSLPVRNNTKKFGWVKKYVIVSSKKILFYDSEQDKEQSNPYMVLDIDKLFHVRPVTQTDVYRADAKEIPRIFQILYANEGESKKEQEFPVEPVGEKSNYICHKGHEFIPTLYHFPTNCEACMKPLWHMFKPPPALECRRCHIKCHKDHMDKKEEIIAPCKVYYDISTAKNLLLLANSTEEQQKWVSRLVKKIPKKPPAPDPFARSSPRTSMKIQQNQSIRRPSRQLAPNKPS
T15 sequence (Q05513 whole entry): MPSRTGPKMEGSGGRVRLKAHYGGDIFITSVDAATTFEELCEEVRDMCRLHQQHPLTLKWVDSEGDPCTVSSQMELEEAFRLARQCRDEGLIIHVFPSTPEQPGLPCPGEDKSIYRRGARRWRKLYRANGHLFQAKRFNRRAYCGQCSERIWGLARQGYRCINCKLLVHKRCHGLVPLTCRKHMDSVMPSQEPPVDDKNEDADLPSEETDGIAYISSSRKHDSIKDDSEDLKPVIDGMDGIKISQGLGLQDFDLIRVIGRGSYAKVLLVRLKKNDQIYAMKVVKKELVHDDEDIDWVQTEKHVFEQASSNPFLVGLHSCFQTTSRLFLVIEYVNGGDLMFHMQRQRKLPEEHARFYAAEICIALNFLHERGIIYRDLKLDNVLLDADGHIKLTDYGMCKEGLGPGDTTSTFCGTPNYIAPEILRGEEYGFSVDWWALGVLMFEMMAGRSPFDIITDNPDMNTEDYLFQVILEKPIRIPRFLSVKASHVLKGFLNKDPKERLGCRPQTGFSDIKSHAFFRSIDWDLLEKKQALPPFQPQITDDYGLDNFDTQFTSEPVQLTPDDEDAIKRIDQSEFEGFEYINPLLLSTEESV
T12 sequence (P23443 whole entry): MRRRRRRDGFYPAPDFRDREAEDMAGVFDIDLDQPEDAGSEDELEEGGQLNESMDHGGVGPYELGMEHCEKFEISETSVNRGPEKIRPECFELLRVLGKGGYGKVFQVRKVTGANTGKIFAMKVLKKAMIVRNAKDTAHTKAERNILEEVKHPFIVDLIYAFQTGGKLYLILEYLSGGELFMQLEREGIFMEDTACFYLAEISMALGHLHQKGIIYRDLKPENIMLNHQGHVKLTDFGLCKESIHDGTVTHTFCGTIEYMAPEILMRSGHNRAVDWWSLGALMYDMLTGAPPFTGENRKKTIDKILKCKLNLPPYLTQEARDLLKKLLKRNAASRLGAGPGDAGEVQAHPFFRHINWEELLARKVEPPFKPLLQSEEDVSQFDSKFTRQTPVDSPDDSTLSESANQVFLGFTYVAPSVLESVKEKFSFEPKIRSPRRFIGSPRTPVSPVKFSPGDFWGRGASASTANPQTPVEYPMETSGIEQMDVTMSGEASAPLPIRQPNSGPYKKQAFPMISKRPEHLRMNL
T2 sequence (P49760 whole entry): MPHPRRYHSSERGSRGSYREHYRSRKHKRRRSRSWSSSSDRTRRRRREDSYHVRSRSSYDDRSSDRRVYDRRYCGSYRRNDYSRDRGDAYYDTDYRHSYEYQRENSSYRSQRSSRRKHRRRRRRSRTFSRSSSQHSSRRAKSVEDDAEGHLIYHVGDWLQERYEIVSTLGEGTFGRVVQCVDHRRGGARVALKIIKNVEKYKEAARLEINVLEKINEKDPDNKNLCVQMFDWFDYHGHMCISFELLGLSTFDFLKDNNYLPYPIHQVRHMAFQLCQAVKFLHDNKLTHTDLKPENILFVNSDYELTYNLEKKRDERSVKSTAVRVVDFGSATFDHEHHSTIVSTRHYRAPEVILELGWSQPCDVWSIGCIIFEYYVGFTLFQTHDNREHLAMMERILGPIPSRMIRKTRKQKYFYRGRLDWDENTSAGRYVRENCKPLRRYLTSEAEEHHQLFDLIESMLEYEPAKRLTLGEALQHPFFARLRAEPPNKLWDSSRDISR
T19 sequence (O14757 whole entry): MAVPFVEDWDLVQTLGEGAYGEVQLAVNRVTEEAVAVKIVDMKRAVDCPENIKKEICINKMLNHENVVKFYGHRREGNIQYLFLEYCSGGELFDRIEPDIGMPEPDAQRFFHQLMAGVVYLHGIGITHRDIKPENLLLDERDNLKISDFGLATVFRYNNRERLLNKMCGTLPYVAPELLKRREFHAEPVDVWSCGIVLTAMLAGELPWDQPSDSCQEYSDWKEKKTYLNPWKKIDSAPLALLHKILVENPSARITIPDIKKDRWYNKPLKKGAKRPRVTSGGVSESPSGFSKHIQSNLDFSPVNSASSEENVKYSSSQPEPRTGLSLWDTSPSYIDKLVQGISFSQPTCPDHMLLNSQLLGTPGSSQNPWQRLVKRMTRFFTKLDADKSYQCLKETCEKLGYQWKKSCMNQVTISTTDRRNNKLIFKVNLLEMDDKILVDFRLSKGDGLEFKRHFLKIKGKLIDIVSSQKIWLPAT

In the case of `c1cncc(-c2csc(-c3cncs3)c2)c1` [Compound 48, 3-[5-(1,3-thiazol-5-yl)thiophen-3-yl]pyridine], the caspase-3/7 activity (U2OS osteosarcoma cells) is reported as “clear increase”, the inhibition at 5 µM (DYRK3) is reported as 69% and the inhibition at 5 µM (CLK2) is reported as 78%. The inhibition at 5 µM (MAPK12 (p38 gamma, ERK3)) was 3%, the inhibition at 5 µM (MAPK8 (JNK1)) was 5% and the inhibition at 5 µM (MAPK9 (JNK2)) was -6%. It also gave an inhibition at 5 µM (SRPK1) of 1%, an inhibition at 5 µM (MAP2K1 (MEK1)) of 2% and an inhibition at 5 µM (MAP2K6 (MKK6)) of 7%. It also gave an inhibition at 5 µM (TAOK2 (TAO1)) of -6%, an inhibition at 5 µM [1] of 27% and an inhibition at 5 µM (ROCK2) of 9%. For the same molecule, the inhibition at 5 µM (RPS6KB1 (p70S6K)) was -4%, the inhibition at 5 µM (SGK (SGK1)) was 22% and the inhibition at 5 µM (PRKCE (PKC epsilon)) was -5%. It also gave an inhibition at 5 µM (PRKCZ (PKC zeta)) of -25%, an inhibition at 5 µM (PDK1) of 7% and an inhibition at 5 µM (MAPKAPK2) of 2%. The inhibition at 5 µM (MARK1 (MARK)) was 1%, the inhibition at 5 µM (CHEK1 (CHK1)) was 7% and the inhibition at 5 µM (CHEK2 (CHK2)) was -2%. For the same molecule, the inhibition at 5 µM (MYLK2 (skMLCK)) was 31%, the inhibition at 5 µM (PASK) was 27% and the inhibition at 5 µM (IKBKB (IKK beta)) was 12%. It also gave an inhibition at 5 µM (CSNK1G1 (CK1 gamma 1)) of -3%, an inhibition at 5 µM (ZAK) of 11% and an inhibition at 5 µM (RAF1 (cRAF) Y340D Y341D) of 37%. For the same molecule, the inhibition at 5 µM (ACVR1 (ALK2)) was 51%, the inhibition at 5 µM (IRAK4) was -11% and the inhibition at 5 µM (TNK2 (ACK)) was 8%. It also gave an inhibition at 5 µM (EPHA5) of -6%, an inhibition at 5 µM (FGFR3) of -1% and an inhibition at 5 µM (IGF1R) of 3%. The inhibition at 5 µM (MET (cMet)) was -12%, the inhibition at 5 µM (ZAP70) was -1% and the inhibition at 5 µM (TEK (Tie2)) was 0%. The inhibition at 5 µM (SRC) was -4% and the inhibition at 5 µM (PTK6 (Brk)) was 34%.
